# Test results: patent publication US20110250184A1, “METHODS FOR DETERMINING EFFICACY OF A THERAPEUTIC REGIMEN AGAINST DELETERIOUS EFFECTS OF CYTOTOXIC AGENTS IN HUMAN” (priority 2008, published 2011)
# What was measured:
# [1] = system: 67 radioligand receptor binding assays; assay: Panel of 67 radioligand receptor binding assays; conditions: in vitro primary screening
# Description: Additional biochemical studies were performed to screen for potential secondary or non-specific activities. ON 01210.Na was subjected to in vitro primary screening across a broad panel of 67 radioligand receptor binding assays and five cytochrome P450 enzymes: 1A2, 2C9, 2C19, 3A4, and 2D6. […] Only one cytochrome assay, CYP450 2C9, in which the activity was […] 98%, yielded a response that was considered significant. Thus, as a preliminary screen for safety and selectivity profiling, no targets were identified.
# [2] = system: HFL-1 (normal diploid lung fibroblasts) cells; assay: Clonogenic assay, radioprotection of HFL-1 cells against ionizing radiation; type: cell-based, human
# Source text: FIG. 1. Protection of HFL-1 cells against Ionizing Radiation (IR) by ON 01210.Na. Following drug treatment and radiation exposure, cells were re-plated and the number of colonies from each plate was enumerated three weeks later. A. Relation of concentration of ON 01210.Na to number of surviving colonies. B. Stained clonogenic assay plates.
# A clonogenic assay was used to measure radioprotection of ON 01210.Na on cultured human cells. Treatment of HFL-1 (normal diploid lung fibroblasts) cells with 2-20 μM of ON 01210.Na for 24 hours prior to cytotoxic levels of Ionizing Radiation (IR) (10 Gy) provided 3.3-4.7 fold protection in a dose-dependent manner (see FIG. 1A).HFL-1 cells, were treated with ON 01210.Na at final concentrations ranging from 2.0 to 20.0 μM. In a second experiment, cells were also treated with the drug for 24 h, but the drug was applied 4 h after irradiation.
# Following drug treatment and radiation exposure, cells were re-plated and the number of colonies from each plate was enumerated three weeks later. A. Relation of concentration of ON 01210.Na to number of surviving colonies. B. Stained clonogenic assay plates.
smiles,measurement,setting,value
"O=C([O-])c1ccc(/C=C/S(=O)(=O)Cc2ccc(Cl)cc2)cc1.[Na+] [ON 01210.Na, E-4-Carboxystyryl-4-chlorobenzylsulfone sodium salt]",inhibition or stimulation of receptor binding,[1],No significant inhibition or stimulation
same,fold protection (surviving colonies),"[2]; 2-20 μM for 24 hours prior to 10 Gy IR, dose-dependent",3.3-4.7 fold
same,number of cells per colony,[2]; ON 01210.Na treated group after IR,significant larger
same,protection from radiation exposure (clonogenic survival),[2]; human lung fibroblasts,protected
same,protection when cells treated post irradiation,"[2]; treated four hours post irradiation exposure, 24 h",significant protection
